Assay results published in ChEMBL document CHEMBL1201862, “PubChem BioAssay data set” (2004).
Values joined by “and” are separate entries in the source; they are usually repeats but may differ in a detail not shown here. Equal values may be shown once.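 Dose response: 5 concentrations. Exposure: 48 h. Format: 96-well plates. Endpoint: linear interpolation; highest concentration if not reached. Abbreviation: GI50, concentration required for 50% inhibition of growth.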 Active and inactive are the calls of the source. No stated cut-off is given here; in the data, active = GI50 up to about 1.1 µM and inactive = higher.

Assays:
Experiment in all cases: NCI-60 cell line screen, 48 h
EKVX = test system: EKVX
HCT-116 = test system: HCT-116
HOP-92 = test system: HOP-92
NCI-H23 = test system: NCI-H23
OVCAR-8 = test system: OVCAR-8
CCRF-CEM = test system: CCRF-CEM
COLO 205 = test system: COLO 205
A549 = test system: A549
K562 = test system: K562
SNB-19 = test system: SNB-19
SF-295 = test system: SF-295
IGROV-1 = test system: IGROV-1
SF-539 = test system: SF-539
SW-620 = test system: SW-620
SNB-75 = test system: SNB-75
HT-29 = test system: HT-29
HL-60 = test system: HL-60
UO-31 = test system: UO-31
SK-MEL-28 = test system: SK-MEL-28

SMILES | GI50 (EKVX) | GI50 (HCT-116) | GI50 (HOP-92) | GI50 (NCI-H23) | GI50 (OVCAR-8) | GI50 (CCRF-CEM) | GI50 (COLO 205) | GI50 (A549) | GI50 (K562) | GI50 (SNB-19) | GI50 (SF-295) | GI50 (IGROV-1) | GI50 (SF-539) | GI50 (SW-620) | GI50 (SNB-75) | GI50 (HT-29) | GI50 (HL-60) | GI50 (UO-31) | GI50 (SK-MEL-28)
CCOC(=O)/C(C#N)=C(O)/C(=C\c1ccc(Br)cc1)NC(=O)c1ccccc1 | > 100 µM (inactive) | 16.4 µM (inactive) | > 100 µM (inactive) | > 100 µM (inactive) | > 100 µM (inactive) | > 100 µM (inactive) | > 100 µM (inactive) | > 100 µM (inactive) | > 100 µM (inactive) | > 100 µM (inactive) | > 100 µM (inactive) | > 100 µM (inactive) | > 100 µM (inactive) | 19.2 µM (inactive) | > 100 µM (inactive) | > 100 µM (inactive) | > 100 µM (inactive) | > 100 µM (inactive) | > 100 µM (inactive)
COc1ccc2occ(CCC(=O)O)c2c1 | > 100 µM (inactive) | > 100 µM (inactive) | > 100 µM (inactive) | > 100 µM (inactive) | > 100 µM (inactive) | > 100 µM (inactive) | > 100 µM (inactive) | > 100 µM (inactive) | > 100 µM (inactive) | > 100 µM (inactive) | > 100 µM (inactive) | > 100 µM (inactive) | > 100 µM (inactive) | > 100 µM (inactive) | > 100 µM (inactive) | > 100 µM (inactive) | > 100 µM (inactive) | – | > 100 µM (inactive)
CC(C)(C)OC(=O)NC(Cc1ccc(O)cn1)C(=O)O (centres undefined) | > 100 µM (inactive) | > 100 µM (inactive) | > 100 µM (inactive) | > 100 µM (inactive) | > 100 µM (inactive) | > 10 µM (inactive) | > 100 µM (inactive) | > 100 µM (inactive) | > 100 µM (inactive) | > 100 µM (inactive) | > 100 µM (inactive) | > 100 µM (inactive) | > 100 µM (inactive) | > 100 µM (inactive) | > 100 µM (inactive) | > 100 µM (inactive) | > 100 µM (inactive) | > 100 µM (inactive) | > 100 µM (inactive)
Nc1nc(Cl)cc(NCCCCCNc2cc(Cl)nc(N)n2)n1 | 86.5 µM (inactive) | 30.3 µM (inactive) | 28.2 µM (inactive) | 55.5 µM (inactive) | 71.8 µM (inactive) | 54.1 µM (inactive) | > 100 µM (inactive) | 42 µM (inactive) | 34.6 µM (inactive) | > 100 µM (inactive) | 29.2 µM (inactive) | > 100 µM (inactive) | > 100 µM (inactive) | > 100 µM (inactive) | 72.3 µM (inactive) | > 100 µM (inactive) | 27.3 µM (inactive) | > 100 µM (inactive) | 75 µM (inactive)
COC(=O)C1(C(=O)OC)CC2=C(S(=O)(=O)c3ccccc3)C[C@@H](C#N)[C@H]2C1 | > 100 µM (inactive) | > 100 µM (inactive) | 28.9 µM (inactive) | > 100 µM (inactive) | > 100 µM (inactive) | > 100 µM (inactive) | > 100 µM (inactive) | > 100 µM (inactive) | > 100 µM (inactive) | > 100 µM (inactive) | > 100 µM (inactive) | 52 µM (inactive) | > 100 µM (inactive) | > 100 µM (inactive) | > 100 µM (inactive) | > 100 µM (inactive) | > 100 µM (inactive) | > 100 µM (inactive) | > 100 µM (inactive)
Cc1cccc(C)c1NC(=O)CCC/C(CC(=O)c1ccc(F)cc1)=N\NC(=O)C(=O)NN | > 100 µM (inactive) | > 100 µM (inactive) | – | > 100 µM (inactive) | > 100 µM (inactive) | > 100 µM (inactive) | > 100 µM (inactive) | > 100 µM (inactive) | > 100 µM (inactive) | > 100 µM (inactive) | > 100 µM (inactive) | > 100 µM (inactive) | > 100 µM (inactive) | > 100 µM (inactive) | > 100 µM (inactive) | > 100 µM (inactive) | > 100 µM (inactive) | > 100 µM (inactive) | > 100 µM (inactive)
O=C1CC[C@@H](S(=O)(=O)c2ccccc2)[C@H](/C=C/c2ccccc2)O1 | > 100 µM (inactive) | > 100 µM (inactive) | – | > 100 µM (inactive) | > 100 µM (inactive) | > 100 µM (inactive) | > 100 µM (inactive) | > 100 µM (inactive) | > 100 µM (inactive) | > 100 µM (inactive) | > 100 µM (inactive) | > 100 µM (inactive) | > 100 µM (inactive) | > 100 µM (inactive) | > 100 µM (inactive) | > 100 µM (inactive) | > 100 µM (inactive) | > 100 µM (inactive) | > 100 µM (inactive)
Nc1nc2c(c(=O)[nH]1)NC(CO)CN2 (centres undefined) | > 100 µM (inactive) | 32.7 µM (inactive) | – | > 100 µM (inactive) | 71 µM (inactive) | 29.9 µM (inactive) | > 100 µM (inactive) | > 100 µM (inactive) | 51.3 µM (inactive) | > 100 µM (inactive) | 89.5 µM (inactive) | > 100 µM (inactive) | > 100 µM (inactive) | 37.9 µM (inactive) | > 100 µM (inactive) | 44.2 µM (inactive) | > 100 µM (inactive) | > 100 µM (inactive) | > 100 µM (inactive)
O=C(/C=C/c1ccc([N+](=O)[O-])o1)N1CCN(Cc2ccccc2)CC1 | 22.4 µM (inactive) | 10.8 µM (inactive) | 14.1 µM (inactive) | 5.93 µM (inactive) | 12.2 µM (inactive) | 2.7 µM (inactive) | – | 16.9 µM (inactive) | 3.46 µM (inactive) | 16.2 µM (inactive) | 15.3 µM (inactive) | 16.5 µM (inactive) | 6.61 µM (inactive) | 7.08 µM (inactive) | 14.7 µM (inactive) | 5.81 µM (inactive) | 2.56 µM (inactive) | 17.3 µM (inactive) | 4.89 µM (inactive)
CN(C)C(=O)CC(C(=O)O)c1c[nH]c2ccccc12 (centres undefined) | > 100 µM (inactive) | > 100 µM (inactive) | – | > 100 µM (inactive) | > 100 µM (inactive) | > 100 µM (inactive) | > 100 µM (inactive) | > 100 µM (inactive) | > 100 µM (inactive) | > 100 µM (inactive) | > 100 µM (inactive) | > 100 µM (inactive) | > 100 µM (inactive) | > 100 µM (inactive) | > 100 µM (inactive) | > 100 µM (inactive) | > 100 µM (inactive) | 0.0895 µM (active) | –
CC1Cc2c(N)nc(NN)nc2NC1=O (centres undefined) | > 100 µM (inactive) | > 100 µM (inactive) | – | > 100 µM (inactive) | > 100 µM (inactive) | > 100 µM (inactive) | > 100 µM (inactive) | > 100 µM (inactive) | > 100 µM (inactive) | > 100 µM (inactive) | > 100 µM (inactive) | > 100 µM (inactive) | > 100 µM (inactive) | > 100 µM (inactive) | > 100 µM (inactive) | > 100 µM (inactive) | > 100 µM (inactive) | > 100 µM (inactive) | > 100 µM (inactive)
O=C(Cn1ccnc1[N+](=O)[O-])c1ccccc1 | > 100 µM (inactive) | – | > 100 µM (inactive) | > 100 µM (inactive) | > 100 µM (inactive) | > 100 µM (inactive) | > 100 µM (inactive) | > 100 µM (inactive) | > 100 µM (inactive) | > 100 µM (inactive) | > 100 µM (inactive) | > 100 µM (inactive) | > 100 µM (inactive) | > 100 µM (inactive) | > 100 µM (inactive) | > 100 µM (inactive) | > 100 µM (inactive) | > 100 µM (inactive) | > 100 µM (inactive)
CCCCC(C)(C/C=C/[C@@H]1[C@@H](C(O)CCCCCC(=O)OC)C(=O)C[C@H]1O[Si](C)(C)C(C)(C)C)O[Si](C)(C)C (some centres undefined) | > 100 µM (inactive) | 81.1 µM (inactive) | > 100 µM (inactive) | > 100 µM (inactive) | > 100 µM (inactive) | 25.8 µM (inactive) | > 100 µM (inactive) | 70.8 µM (inactive) | 36.5 µM (inactive) | > 100 µM (inactive) | > 100 µM (inactive) | > 100 µM (inactive) | > 100 µM (inactive) | 59.3 µM (inactive) | 56.2 µM (inactive) | 78.5 µM (inactive) | – | 33.7 µM (inactive) | 77.4 µM (inactive)
Cn1cnc([N+](=O)[O-])c1Sc1nccn1-c1cccc2ccccc12 | 26.9 µM (inactive) | 19.7 µM (inactive) | 15.3 µM (inactive) | 23 µM (inactive) | 20.8 µM (inactive) | 19.5 µM (inactive) | 16.7 µM (inactive) | 35 µM (inactive) | 19.8 µM (inactive) | 94 µM (inactive) | 48.4 µM (inactive) | 26.7 µM (inactive) | 25.4 µM (inactive) | 26.2 µM (inactive) | 29.9 µM (inactive) | 23.9 µM (inactive) | – | 16.7 µM (inactive) | 22.5 µM (inactive)
COc1ccc(/C=C2/N/C(=N\N=C/C(O)C(O)C(O)CO)NC2=O)cc1 (centres undefined) | > 100 µM (inactive) | > 100 µM (inactive) | 48.3 µM (inactive) and 42.6 µM (inactive) | – | > 100 µM (inactive) | 63 µM (inactive) and 53 µM (inactive) | 91.4 µM (inactive) | > 100 µM (inactive) | – | – | > 100 µM (inactive) | > 100 µM (inactive) and 76.7 µM (inactive) | 18 µM (inactive) | > 100 µM (inactive) and 77.8 µM (inactive) | – | > 100 µM (inactive) and 63.7 µM (inactive) | > 100 µM (inactive) | > 100 µM (inactive) | –
